Laboratory results published in US20250387359A1, “COMPOUNDS AND METHODS FOR THE TREATMENT OF PARASITIC INFECTIONS” (THE BOARD OF TRUSTEES OF THE UNIVERSITY OF ILLINOIS, priority 2019, published 2025).
“Also recorded” adds a separate entry of the source.

Columns and labels:
[1] = Compound cytotoxicity assay (WST-1) in HCT-8 cells; type: cell-based, human; settings: human; HCT-8 cells, 24 h, WST-1
Description: Compound cytotoxicity assay. […] A colorimetric assay using the cell proliferation reagent WST-1 (Roche, USA) for the quantification of cell viability was performed. […] When the cells were confluent, the old medium was replaced with fresh medium with or without varying concentrations of chemical compound. After 24 h of culture, 10 μl of the cell proliferation reagent WST-1, (for quantification of cell viability) was added to each well, mixed and the plates incubated for 1 h at 37 C with 5% CO2 in the dark. […] Molecular Devices, USA).

[2] = tested on: C. parvum; assay: Real-time PCR quantification of C. parvum DNA in fecal samples of infected mice; type: in vivo, Cryptosporidium parvum; settings: for fecal C. parvum DNA load: Table 6, infected mice, multiplier printed in next cell
Description: In vivo testing of the anti-Cryptosporidium effect of CpLDH inhibitors. Gamma interferon knockout mice (B6.129S7-Ifng), 8 weeks of age, were purchased from Charles River, USA. The care and use of the mice was done following the guidelines of protocol number 17024 approved by the University of Illinois at Urbana-Champaign, USA. The animals were allowed to acclimatize for 1 week before experiments commenced. Stock solutions of recombinant CpLDH inhibitors reconstituted in DMSO were diluted in sterile distilled water to reduce the final amount of DMSO in the solution to less than 1% (v/v) before administering them to mice. Prior to testing the anti-Cryptosporidium effect of the inhibitors in mice, the tolerability of each inhibitor was tested by oral gavage using varying dosages (100-2000 mg/kg body weight) of each inhibitor in groups of mice (three mice for each dose) daily for 7 days. Mice were observed daily for signs of toxicity including changes from normal physical activity, respiration, body temperature, feeding, posture, fur condition or occurrence of death. […] The subsequent dosages of NSC10447 used in the mice infection assays were 250, 500 and 1000 mg/kg mouse body weight, while the NSC158011 dosages used were 100, 200 and 400 mg/kg mouse body weight. Mice were allocated to groups as follows: “Infected plus inhibitor treatment”; “Infected minus inhibitor treatment”; “Uninfected minus inhibitor treatment” and “Infected plus paromomycin treatment”. Each group contained at least three mice. Each mouse in the infection groups received 5,000 C. parvum oocysts (resuspended in 50 μl of PBS) by oral gavage. Mice were housed individually in cages lined with sterile gauze as bedding. One day post-infection (PI), daily oral gavage administration of recombinant CpLDH inhibitor or paromomycin commenced and continued for a total of 7 days. Untreated mice received an equivalent volume of sterile distilled water (containing DMSO equivalent to the amount administered in the inhibitor-treated group) by oral gavage. Fecal pellets were collected daily from each cage and placed in individual sterile 15 ml conical tubes. An equivalent volume of PBS containing a cocktail of penicillin (100 units/ml), streptomycin (100 μg/ml), chloramphenicol (34 μg/ml) and amphotericin (0.25 μg/ml) was added to the fecal samples and stored at 4° C. until use for quantification of C. parvum genomic DNA load. Three independent replicate infection assays were performed. At 9 days PI, mice were euthanized and 5 cm of the distal small intestine resected 2 cm anterior to the cecum and immediately submerged in 4% buffered formalin. The intestinal tissues were submitted for histopathology to the Veterinary Diagnostic Laboratory at the University of Illinois at Urbana-Champaign. Briefly, intestinal tissues preserved in 4% buffered formalin were washed in 70% ethanol and embedded in 1% agar and then processed for paraffin embedding. For hematoxylin and eosin staining, five μm transverse and cross sections were cut and processed and stained following standard procedures of the Veterinary Diagnostic Laboratory. Sections were imaged using a Zeiss microscope and images captured with a color camera.
Quantification of C. parvum shed in mice feces. Genomic DNA was extracted from individual fecal samples collected from mice at different days as described above. For each sample, 220 mg of homogenized feces were used to extract genomic DNA using the QIAamp PowerFecal DNA Kit (Qiagen, USA) following the manufacturer's instructions. Quantification of the amount of C. parvum 18s rRNA gene (GenBank accession number AF164102) was performed essentially as described previously (Int. J. Parasitol. 2018; 48(8), 649-656). Briefly, primers were used to generate a 240 bp amplicon from C. parvum genomic DNA by conventional PCR. […]

[3] = tested on: C. parvum; assay: Histopathology of distal small intestine of C. parvum infected mice; type: in vivo, Cryptosporidium parvum; settings: lower small intestine, H&E, NSC158011 400 mg/kg, NSC10447 250, 500 or 1000 mg/kg, paromomycin 100 mg/kg
Description: In vivo testing of the anti-Cryptosporidium effect of CpLDH inhibitors. Gamma interferon knockout mice (B6.129S7-Ifng), 8 weeks of age, were purchased from Charles River, USA. The care and use of the mice was done following the guidelines of protocol number 17024 approved by the University of Illinois at Urbana-Champaign, USA. The animals were allowed to acclimatize for 1 week before experiments commenced. Stock solutions of recombinant CpLDH inhibitors reconstituted in DMSO were diluted in sterile distilled water to reduce the final amount of DMSO in the solution to less than 1% (v/v) before administering them to mice. Prior to testing the anti-Cryptosporidium effect of the inhibitors in mice, the tolerability of each inhibitor was tested by oral gavage using varying dosages (100-2000 mg/kg body weight) of each inhibitor in groups of mice (three mice for each dose) daily for 7 days. Mice were observed daily for signs of toxicity including changes from normal physical activity, respiration, body temperature, feeding, posture, fur condition or occurrence of death. […] The subsequent dosages of NSC10447 used in the mice infection assays were 250, 500 and 1000 mg/kg mouse body weight, while the NSC158011 dosages used were 100, 200 and 400 mg/kg mouse body weight. Mice were allocated to groups as follows: “Infected plus inhibitor treatment”; “Infected minus inhibitor treatment”; “Uninfected minus inhibitor treatment” and “Infected plus paromomycin treatment”. Each group contained at least three mice. Each mouse in the infection groups received 5,000 C. parvum oocysts (resuspended in 50 μl of PBS) by oral gavage. Mice were housed individually in cages lined with sterile gauze as bedding. […] An equivalent volume of PBS containing a cocktail of penicillin (100 units/ml), streptomycin (100 μg/ml), chloramphenicol (34 μg/ml) and amphotericin (0.25 μg/ml) was added to the fecal samples and stored at 4° C. until use for quantification of C. parvum genomic DNA load. […]

O=C1c2ccccc2C(=O)c2c(O)c(O)cc(O)c21 [NSC10447]
IC50 at 24 h [1]: 290 µM
lower C. parvum DNA load in feces compared to infected untreated ([2]; NSC10447 at 250, 500 and 1000 mg/kg, day 3 until day 8): at least 50%
fecal C. parvum DNA load ([2]; NSC10447 250 mg/kg, DPI 1): 4.4 ± 0.5 ×10^−10 ng/μL
fecal C. parvum DNA load ([2]; NSC10447 250 mg/kg, DPI 2): 7.3 ± 0.2 ×10^−10 ng/μL
fecal C. parvum DNA load ([2]; NSC10447 250 mg/kg, DPI 3): 1.0 ± 0.1 ×10^−8 ng/μL
fecal C. parvum DNA load ([2]; NSC10447 250 mg/kg, DPI 4): 1.2 ± 0.1 ×10^−7 ng/μL
fecal C. parvum DNA load ([2]; NSC10447 250 mg/kg, DPI 5): 1.2 ± 0.1 ×10^−6 ng/μL
fecal C. parvum DNA load ([2]; NSC10447 250 mg/kg, DPI 6): 4.8 ± 0.2 ×10^−6 ng/μL
fecal C. parvum DNA load ([2]; NSC10447 250 mg/kg, DPI 7): 1.9 ± 0.2 ×10^−5 ng/μL
fecal C. parvum DNA load ([2]; NSC10447 250 mg/kg, DPI 8): 4.7 ± 0.1 ×10^−5 ng/μL
fecal C. parvum DNA load ([2]; NSC10447 500 mg/kg, DPI 1): 1.0 ± 0.5 ×10^−10 ng/μL
fecal C. parvum DNA load ([2]; NSC10447 500 mg/kg, DPI 2): 9.4 ± 0.2 ×10^−10 ng/μL
fecal C. parvum DNA load ([2]; NSC10447 500 mg/kg, DPI 3): 6.7 ± 0.6 ×10^−9 ng/μL
fecal C. parvum DNA load ([2]; NSC10447 500 mg/kg, DPI 4): 1.4 ± 0.1 ×10^−7 ng/μL
fecal C. parvum DNA load ([2]; NSC10447 500 mg/kg, DPI 5): 1.6 ± 0.1 ×10^−6 ng/μL
fecal C. parvum DNA load ([2]; NSC10447 500 mg/kg, DPI 6): 5.9 ± 0.4 ×10^−6 ng/μL
fecal C. parvum DNA load ([2]; NSC10447 500 mg/kg, DPI 7): 9.3 ± 0.2 ×10^−6 ng/μL
fecal C. parvum DNA load ([2]; NSC10447 500 mg/kg, DPI 8): 3.0 ± 0.4 ×10^−5 ng/μL
fecal C. parvum DNA load ([2]; NSC10447 1000 mg/kg, DPI 1): 1.2 ± 0.2 ×10^−9 ng/μL
fecal C. parvum DNA load ([2]; NSC10447 1000 mg/kg, DPI 2): 3.0 ± 0.7 ×10^−9 ng/μL
fecal C. parvum DNA load ([2]; NSC10447 1000 mg/kg, DPI 3): 6.4 ± 0.2 ×10^−9 ng/μL
fecal C. parvum DNA load ([2]; NSC10447 1000 mg/kg, DPI 4): 1.1 ± 0.1 ×10^−7 ng/μL
fecal C. parvum DNA load ([2]; NSC10447 1000 mg/kg, DPI 5): 1.3 ± 0.1 ×10^−6 ng/μL
fecal C. parvum DNA load ([2]; NSC10447 1000 mg/kg, DPI 6): 5.6 ± 0.4 ×10^−6 ng/μL
fecal C. parvum DNA load ([2]; NSC10447 1000 mg/kg, DPI 7): 6.3 ± 0.4 ×10^−6 ng/μL
fecal C. parvum DNA load ([2]; NSC10447 1000 mg/kg, DPI 8): 1.2 ± 0.8 ×10^−6 ng/μL
histopathology of intestinal epithelium and villi [3]: prevented villous atrophy and maintained the integrity of the intestinal mucosa; also recorded: intact intestinal epithelium with prominent villi
